Test results from paper PMC3689833, “Neurochemical Changes in the Mouse Hippocampus Underlying the Antidepressant Effect of Genetic Deletion of P2X7 Receptors” (PLoS ONE, 2013).

How the values were obtained:
NA transporter = target: T1, NA transporter (Mus musculus, UniProt O55192); assay: 3H-Nisoxetine binding in hippocampal membranes
T1 construct: the tissue from four animals was pooled, homogenized in incubation buffer; from tissue; host or cells: mouse hippocampus membranes (P2rx7+/+ and P2rx7-/- littermates, C57BL/6 background)
T1 sequence (O55192 whole entry): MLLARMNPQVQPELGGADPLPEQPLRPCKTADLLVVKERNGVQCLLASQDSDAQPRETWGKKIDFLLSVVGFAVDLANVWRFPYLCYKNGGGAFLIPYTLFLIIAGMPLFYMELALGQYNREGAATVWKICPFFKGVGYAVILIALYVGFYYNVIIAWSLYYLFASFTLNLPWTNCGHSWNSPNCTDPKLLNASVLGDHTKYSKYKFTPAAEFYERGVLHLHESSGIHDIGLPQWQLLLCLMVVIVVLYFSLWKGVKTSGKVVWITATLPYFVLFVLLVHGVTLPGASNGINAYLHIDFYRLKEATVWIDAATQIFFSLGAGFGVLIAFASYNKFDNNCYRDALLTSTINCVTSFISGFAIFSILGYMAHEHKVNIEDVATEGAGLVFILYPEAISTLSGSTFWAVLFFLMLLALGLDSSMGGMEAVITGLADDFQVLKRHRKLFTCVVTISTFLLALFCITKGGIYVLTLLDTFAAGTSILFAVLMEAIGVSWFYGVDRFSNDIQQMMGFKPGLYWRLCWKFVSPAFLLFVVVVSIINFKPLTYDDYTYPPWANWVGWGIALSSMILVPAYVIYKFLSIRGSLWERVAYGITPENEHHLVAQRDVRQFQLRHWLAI
Description: Male mice (80–85 days old) were decapitated, and the hippocampus was dissected, weighted, and frozen overnight at −70°C. The next day, the tissue from four animals was pooled, homogenized in incubation buffer using an Ultra-Turrax and centrifuged at 40 000×g for 15 minutes. The pellet was washed by repeated resuspension in buffer, followed by centrifugation. […] Eight ligand concentrations (0.1–4 nM) were used in three parallels. The incubation time was 1 hour at 25°C for citalopram, 2.5 hrs at 4°C for nisoxetine and 30 minutes at 25°C for dihydroalprenolol. The non-specific binding was determined in the presence of 1 µM paroxetine (citalopram), 10 µM desmethylimipramine (nisoxetine) and 1 µM (-) alprenolol (DHA). The membranes of P2rx7+/+ and P2rx7−/− mice were assayed in parallel. The binding was terminated using vacuum filtration on GF/B filters soaked in 0.05% polyethylenimine. The Kd and the number of binding sites (Bmax) were calculated using Prism3 software. The protein concentration (approx. 0.5 mg/ml) was measured according to Lowry method using CuEDTA.

β-adrenergic receptors = assay: 3H-Dihydroalprenolol binding in hippocampal membranes; parameters: species or system mouse
Description: Male mice (80–85 days old) were decapitated, and the hippocampus was dissected, weighted, and frozen overnight at −70°C. The next day, the tissue from four animals was pooled, homogenized in incubation buffer using an Ultra-Turrax and centrifuged at 40 000×g for 15 minutes. The pellet was washed by repeated resuspension in buffer, followed by centrifugation. […] Eight ligand concentrations (0.1–4 nM) were used in three parallels. […] The membranes of P2rx7+/+ and P2rx7−/− mice were assayed in parallel. The binding was terminated using vacuum filtration on GF/B filters soaked in 0.05% polyethylenimine. The Kd and the number of binding sites (Bmax) were calculated using Prism3 software. The protein concentration (approx. 0.5 mg/ml) was measured according to Lowry method [50] using CuEDTA.

[1] = hippocampal membranes of P2rx7+/+ mice
[2] = hippocampal membranes of P2rx7−/− mice

| Kd (NA transporter) | Bmax (NA transporter; [1]) | Bmax (NA transporter; [2]) | SMILES | Kd (β-adrenergic receptors; [1]) | Kd (β-adrenergic receptors; [2]) |
| --- | --- | --- | --- | --- | --- |
| 0.7 ± 0.05 nM | 126.8±4.9 fmol/mg protein | 131.4±7.5 fmol/mg protein | CNCCC(Oc1ccccc1OC)c1ccccc1 (centres unmarked) [^3H-nisoxetine] |  |  |
|  |  |  | CCCc1ccccc1OCC(O)CNC(C)C (centres unmarked) [^3H-dihydroalprenolol] | 0.5 ± 0.02 nM | 0.4 ± 0.02 nM |
